pIC50: −log10 of the molar value.
System: K24384-001-R-PDC complex spheroids, viability
Experiment: Anticancer human tumor K24384-001-R-PDC patient-derived pancreatic adenocarcinoma cell line growth inhibition [GQUAD]
Conditions: for pIC50: curve of first compound; for viability, T/C: stronger effect = lower value
Method in brief: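 Tumor cells were grown as complex spheroids with HUVEC endothelial cells and mesenchymal stem cells as stroma. G-quadruplex stabilizers were combined with targeted agents over half-log dilutions from near the clinical Cmax, or from 10 microM.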

[1] = second compound 0.0316 µM, first compound 0.0316 µM
[2] = second compound 0.0316 µM, first compound 0.1 µM
[3] = second compound 0.0316 µM, first compound 0.316 µM
[4] = second compound 0.0316 µM, first compound 1 µM
[5] = second compound 0.0316 µM, first compound 3.16 µM
[6] = second compound 0.0316 µM, first compound 10 µM
[7] = second compound 0.1 µM, first compound 0.0316 µM
[8] = second compound 0.1 µM, first compound 0.1 µM
[9] = second compound 0.1 µM, first compound 0.316 µM
[10] = second compound 0.1 µM, first compound 1 µM
[11] = second compound 0.1 µM, first compound 3.16 µM
[12] = second compound 0.1 µM, first compound 10 µM
[13] = second compound 0.316 µM, first compound 0.0316 µM
[14] = second compound 0.316 µM, first compound 0.1 µM
[15] = second compound 0.316 µM, first compound 0.316 µM
[16] = second compound 0.316 µM, first compound 1 µM
[17] = second compound 0.316 µM, first compound 3.16 µM
[18] = second compound 0.316 µM, first compound 10 µM
[19] = second compound 1 µM, first compound 0.0316 µM
[20] = second compound 1 µM, first compound 0.1 µM
[21] = second compound 1 µM, first compound 0.316 µM
[22] = second compound 1 µM, first compound 1 µM
[23] = second compound 1 µM, first compound 3.16 µM
[24] = second compound 1 µM, first compound 10 µM
[25] = second compound 3.16 µM, first compound 0.0316 µM
[26] = second compound 3.16 µM, first compound 0.1 µM
[27] = second compound 3.16 µM, first compound 0.316 µM
[28] = second compound 3.16 µM, first compound 1 µM
[29] = second compound 3.16 µM, first compound 3.16 µM
[30] = second compound 3.16 µM, first compound 10 µM
[31] = second compound 10 µM, first compound 0.0316 µM
[32] = second compound 10 µM, first compound 0.1 µM
[33] = second compound 10 µM, first compound 0.316 µM
[34] = second compound 10 µM, first compound 1 µM
[35] = second compound 10 µM, first compound 3.16 µM
[36] = second compound 10 µM, first compound 10 µM
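Note: spheroids exposed to compounds for seven days.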

How did the pIC50 (second compound 0.0316 µM) turn out when `C=CCn1c(=O)c2cnc(Nc3ccc(N4CCN(C)CC4)cc3)nc2n1-c1cccc(C(C)(C)O)n1` + Cc1cnc(CNC(=O)c2c(=O)c3ccc(N4CCCN(C)CC4)nc3n3c2sc2ccccc23)cn1 was run?
The pIC50 was 6.31.

And the pIC50 (second compound 0.1 µM)?
The pIC50 was 6.46.

What about the pIC50 (second compound 0.316 µM) of the same molecule?
The pIC50 was over 7.50.

What about the pIC50 (second compound 1 µM) of the same molecule?
Its pIC50 is over 7.50.

What about the pIC50 (second compound 3.16 µM) of the same molecule?
The pIC50 was over 7.50.

What about the pIC50 (second compound 10 µM) of the same molecule?
Its pIC50 is over 7.50.

What about the viability, T/C [1] of the same molecule?
The viability, T/C was 63.6%.

And the viability, T/C [2]?
The viability, T/C was 76.6%.

And the viability, T/C [3]?
The viability, T/C was 68.1%.

What about the viability, T/C [4] of the same molecule?
Its viability, T/C is 18.3%.

And the viability, T/C [5]?
The viability, T/C was 17.8%.

And the viability, T/C [6]?
The viability, T/C was 23.2%.

And the viability, T/C [7]?
Its viability, T/C is 53.3%.

And the viability, T/C [8]?
Its viability, T/C is 65.2%.

What about the viability, T/C [9] of the same molecule?
Its viability, T/C is 51.4%.

What about the viability, T/C [10] of the same molecule?
Its viability, T/C is 27.1%.

What about the viability, T/C [11] of the same molecule?
Its viability, T/C is 19.8%.

And the viability, T/C [12]?
Its viability, T/C is 18.1%.

And the viability, T/C [13]?
The viability, T/C was 45.5%.

And the viability, T/C [14]?
The viability, T/C was 50.1%.

And the viability, T/C [15]?
Its viability, T/C is 37.1%.

And the viability, T/C [16]?
Its viability, T/C is 26.7%.

And the viability, T/C [17]?
Its viability, T/C is 22.6%.

And the viability, T/C [18]?
The viability, T/C was 17.5%.

And the viability, T/C [19]?
The viability, T/C was 30.5%.

What about the viability, T/C [20] of the same molecule?
Its viability, T/C is 49.7%.

What about the viability, T/C [21] of the same molecule?
Its viability, T/C is 34.9%.

What about the viability, T/C [22] of the same molecule?
The viability, T/C was 36.9%.

And the viability, T/C [23]?
Its viability, T/C is 27.1%.

What about the viability, T/C [24] of the same molecule?
Its viability, T/C is 22.9%.

What about the viability, T/C [25] of the same molecule?
The viability, T/C was 36.4%.

What about the viability, T/C [26] of the same molecule?
Its viability, T/C is 39.7%.

What about the viability, T/C [27] of the same molecule?
Its viability, T/C is 28.1%.

What about the viability, T/C [28] of the same molecule?
The viability, T/C was 31.8%.

And the viability, T/C [29]?
Its viability, T/C is 26%.

What about the viability, T/C [30] of the same molecule?
The viability, T/C was 15.8%.

What about the viability, T/C [31] of the same molecule?
The viability, T/C was 10%.

What about the viability, T/C [32] of the same molecule?
The viability, T/C was 10.6%.

And the viability, T/C [33]?
The viability, T/C was 18%.

What about the viability, T/C [34] of the same molecule?
Its viability, T/C is 6.25%.

What about the viability, T/C [35] of the same molecule?
The viability, T/C was 0.39%.

And the viability, T/C [36]?
Its viability, T/C is 0.2%.

What does the source list for `CC(C)n1c(=O)n(C)c2cnc3cc(F)c(-c4ccc(OCCCN5CCCCC5)nc4)cc3c21` + CN(C)c1ccc(Nc2c3ccc(NC(=O)CCN4CCCC4)cc3nc3cc(NC(=O)CCN4CCCC4)ccc23)cc1?
pIC50 (second compound 0.0316 µM): < 5.00; pIC50 (second compound 0.1 µM): < 5.00; pIC50 (second compound 0.316 µM): < 5.00; pIC50 (second compound 1 µM): < 5.00; pIC50 (second compound 3.16 µM): 5.02; pIC50 (second compound 10 µM): 6.21; viability, T/C [1]: 97.1%; viability, T/C [2]: 82.6%; viability, T/C [3]: 109%; viability, T/C [4]: 116%; viability, T/C [5]: 119%; viability, T/C [6]: 84.1%; viability, T/C [7]: 85.7%; viability, T/C [8]: 101%; viability, T/C [9]: 121%; viability, T/C [10]: 99.4%; viability, T/C [11]: 122%; viability, T/C [12]: 79%; viability, T/C [13]: 80.5%; viability, T/C [14]: 97.2%; viability, T/C [15]: 109%; viability, T/C [16]: 110%; viability, T/C [17]: 129%; viability, T/C [18]: 86.9%; viability, T/C [19]: 77.9%; viability, T/C [20]: 88.7%; viability, T/C [21]: 92.8%; viability, T/C [22]: 118%; viability, T/C [23]: 109%; viability, T/C [24]: 67.3%; viability, T/C [25]: 90.2%; viability, T/C [26]: 89.2%; viability, T/C [27]: 105%; viability, T/C [28]: 95.7%; viability, T/C [29]: 78.2%; viability, T/C [30]: 48.7%; viability, T/C [31]: 69.8%; viability, T/C [32]: 70.5%; viability, T/C [33]: 55.9%; viability, T/C [34]: 44.7%; viability, T/C [35]: 31%; viability, T/C [36]: 21.5%

How did the pIC50 (second compound 0.0316 µM) turn out when `COc1ncnc(C2CC2)c1-c1ncc2cnn(Cc3ccc(-c4nc(C(F)(F)F)cn4C(C)C)cc3)c2n1` + Cc1[nH]c2ccc(F)cc2c1-c1nc2c3cccnc3c3ncccc3c2[nH]1 was run?
The pIC50 was under 5.00.

What about the pIC50 (second compound 0.1 µM) of the same molecule?
The pIC50 was under 5.00.

And the pIC50 (second compound 0.316 µM)?
The pIC50 was under 5.00.

And the pIC50 (second compound 1 µM)?
Its pIC50 is under 5.00.

And the pIC50 (second compound 3.16 µM)?
The pIC50 was under 5.00.

What about the pIC50 (second compound 10 µM) of the same molecule?
Its pIC50 is under 5.00.

And the viability, T/C [1]?
Its viability, T/C is 106%.

What about the viability, T/C [2] of the same molecule?
Its viability, T/C is 109%.

What about the viability, T/C [3] of the same molecule?
Its viability, T/C is 122%.

And the viability, T/C [4]?
The viability, T/C was 97.5%.

What about the viability, T/C [5] of the same molecule?
Its viability, T/C is 104%.

What about the viability, T/C [6] of the same molecule?
Its viability, T/C is 128%.

And the viability, T/C [7]?
The viability, T/C was 98.4%.

What about the viability, T/C [8] of the same molecule?
Its viability, T/C is 98.7%.

And the viability, T/C [9]?
The viability, T/C was 103%.

And the viability, T/C [10]?
Its viability, T/C is 85.5%.

And the viability, T/C [11]?
The viability, T/C was 122%.

What about the viability, T/C [12] of the same molecule?
Its viability, T/C is 134%.

And the viability, T/C [13]?
Its viability, T/C is 90.8%.

And the viability, T/C [14]?
Its viability, T/C is 107%.

What about the viability, T/C [15] of the same molecule?
The viability, T/C was 107%.

And the viability, T/C [16]?
Its viability, T/C is 95.6%.

What about the viability, T/C [17] of the same molecule?
The viability, T/C was 96.7%.

What about the viability, T/C [18] of the same molecule?
The viability, T/C was 118%.

What about the viability, T/C [19] of the same molecule?
The viability, T/C was 86.3%.

What about the viability, T/C [20] of the same molecule?
The viability, T/C was 96.8%.

What about the viability, T/C [21] of the same molecule?
The viability, T/C was 95.8%.

And the viability, T/C [22]?
Its viability, T/C is 104%.

And the viability, T/C [23]?
Its viability, T/C is 95.2%.

What about the viability, T/C [24] of the same molecule?
The viability, T/C was 95.7%.

What about the viability, T/C [25] of the same molecule?
The viability, T/C was 81.8%.

What about the viability, T/C [26] of the same molecule?
The viability, T/C was 89.3%.

And the viability, T/C [27]?
The viability, T/C was 73.2%.

What about the viability, T/C [28] of the same molecule?
Its viability, T/C is 88.7%.

What about the viability, T/C [29] of the same molecule?
The viability, T/C was 95.1%.

What about the viability, T/C [30] of the same molecule?
Its viability, T/C is 84.1%.

And the viability, T/C [31]?
Its viability, T/C is 72.5%.

What about the viability, T/C [32] of the same molecule?
The viability, T/C was 102%.

And the viability, T/C [33]?
Its viability, T/C is 64.3%.

What about the viability, T/C [34] of the same molecule?
The viability, T/C was 73.1%.

What about the viability, T/C [35] of the same molecule?
The viability, T/C was 96.1%.

And the viability, T/C [36]?
Its viability, T/C is 75.5%.

Reference: PubChem BioAssay AID2060483 (Molecular Pharmacology Branch, DTP, NCI, 2025)
